What is called IC50 is the concentration needed to halve the response being measured.

SMILES strings stand for the structures.

The test addresses T1, wild-type HIV-1 protease (Human immunodeficiency virus type 1 group M subtype B, UniProt P04585).
T1 construct: Escherichia coli expressed wild-type HIV-1 protease protein
Kind of test: Assay for Inhibition of Microbial Expressed HIV Protease (peptide substrate cleavage, LC-MS/MS readout). The format is biochemical. The note with it: E. coli expressed wild-type HIV-1 protease, mean of at least two independent experiments, read-out: HIV Pr Enzyme HIV1 PR IC50. The essentials: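 Cleavage of Val-Ser-Gln-Asn-(β-naphthyl)Ala-Pro-Ile-Val (400 μM) by recombinant HIV-1 protease ([…]) ran 1 h at 30 °C after a 30 min room-temperature inhibitor preincubation in 50 mM sodium acetate pH 5.5. Product peak areas by LC-MS/MS gave inhibition; values average at least two independent runs.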

As to `CC1(C)CN(C(=O)c2cccc(CN3C(=N)NC(c4ccccc4)(c4ccccc4)C3=O)c2)Cc2nnc(C(F)(F)F)n21` [Compound 300, 3-(3-{[5,5-dimethyl-3-(trifluoromethyl)-5,6-dihydro[1,2,4]triazolo[4,3-a]pyrazin-7(8H)-yl]carbonyl}benzyl)-2-imino-5,5-diphenylimidazolidin-4-one], the IC50 came to 44 nM. Turning to `N=C1NC(c2ccccc2)(c2ccccc2)C(=O)N1Cc1cccc(C(=O)N2CCn3nc(C(F)(F)F)nc3C2)c1` [Compound 301, 2-imino-5,5-diphenyl-3-(3-{[2-(trifluoromethyl)-5,6-dihydro[1,2,4]triazolo[1,5-a]pyrazin-7(8H)-yl]carbonyl}benzyl) imidazolidin-4-one], the IC50 was 45.2 nM. Regarding `CCCC1(c2ccccc2)NC(=N)N(Cc2cccc(C(=O)N3Cc4cncnc4C3)c2)C1=O` (stereo not shown) [Compound 302, 3-[3-(5,7-dihydro-6H-pyrrolo[3,4-d]pyrimidin-6-ylcarbonyl)benzyl]-2-imino-5-phenyl-5-propylimidazolidin-4-one], the IC50 came out at 45.4 nM.

For `CC(C)CC1(c2ccccc2)NC(=N)N(Cc2cccc(C(=O)N3CCN(c4ncccn4)CC3)c2)C1=O` (stereo not shown) [Compound 303, 2-imino-5-(2-methylpropyl)-5-phenyl-3-{3-[(4-pyrimidin-2-ylpiperazin-1-yl)carbonyl]benzyl} imidazolidin-4-one], the IC50 amounted to 45.9 nM. The result for `CC(C)CCC1(c2cccc(-c3cccnc3)c2)NC(=N)N(Cc2cccc(C(=O)N3Cc4nccnc4C3)c2)C1=O` (stereo not shown) [Compound 304, 3-[3-(5,7-dihydro-6H-pyrrolo[3,4-b]pyrazin-6-ylcarbonyl)benzyl]-2-imino-5-(3-methylbutyl)-5-(3-pyridin-3-ylphenyl)imidazolidin-4-one] reads 45.9 nM; that for `COC(=O)N1CCN(C(=O)c2cccc(CN3C(=N)NC(c4ccc(F)cc4)(c4ccc(F)cc4)C3=O)c2)CC1` [Compound 305, methyl 4-[(3-{[4,4-bis(4-fluorophenyl)-2-imino-5-oxoimidazolidin-1-yl]methyl}phenyl)carbonyl] piperazine-1-carboxylate], 64.1 nM. As for `CN(C)C(=O)c1cccc(C2(c3ccc(F)cc3)NC(=N)N(Cc3cccc(C(=O)N4Cc5ccccc5C4)c3)C2=O)c1` (stereo not shown) [Compound 306, 3-{1-[3-(1,3-dihydro-2H-isoindol-2-ylcarbonyl)benzyl]-4-(4-fluorophenyl)-2-imino-5-oxoimidazolidin-4-yl}-N,N-dimethylbenzamide], the IC50 was 47.4 nM.

With `N=C1NC(c2ccccc2)(c2ccccc2)C(=O)N1Cc1cccc(C(=O)N2CCN(c3ccccn3)CC2)c1` [Compound 307, 2-imino-5,5-diphenyl-3-{3-[(4-pyridin-2-ylpiperazin-1-yl)carbonyl]benzyl}-imidazolidin-4-one], the IC50 was 47.7 nM.

Turning to `N=C1NC(c2ccccc2)(c2ccccc2)C(=O)N1Cc1cccc(C(=O)N2CCc3cc(F)ccc3C2)c1` [Compound 308, 3-{3-[(6-fluoro-3,4-dihydroisoquinolin-2(1H)-yl)carbonyl]benzyl}-2-imino-5,5-diphenylimidazolidin-4-one], the IC50 amounted to 49 nM. Take `CN(C)C(=O)N1CCN(C(=O)c2cc(F)cc(CN3C(=N)NC(c4ccccc4)(c4ccccc4)C3=O)c2)CC1` [Compound 309, 4-({3-fluoro-5-[(2-imino-5-oxo-4,4-diphenylimidazolidin-1-yl)methyl]phenyl}carbonyl)-N,N-dimethylpiperazine-1-carboxamide]: the IC50 came out at 122 nM. Consider `N=C1NC(c2ccccc2)(c2ccccc2)C(=O)N1Cc1cccc(C(=O)N2Cc3cncnc3C2)c1` [Compound 310, 3-[3-(5,7-dihydro-6H-pyrrolo[3,4-d]pyrimidin-6-ylcarbonyl)benzyl]-2-imino-5,5-diphenylimidazolidin-4-one], for which the IC50 worked out at 51.7 nM. With `CC1c2ccccc2CN1C(=O)c1cccc(CN2C(=N)NC(c3ccc(F)cc3)(c3ccc(F)cc3)C2=O)c1` (stereo not shown) [Compound 311, 5,5-bis(4-fluorophenyl)-2-imino-3-{3-[(1-methyl-1,3-dihydro-2H-isoindol-2-yl)carbonyl]benzyl} imidazolidin-4-one], the IC50 was found to be 51.8 nM.

Regarding `N=C1NC(c2ccccc2)(c2ccccc2)C(=O)N1Cc1cccc(C(=O)N2CCc3ccccc32)c1` [Compound 312, 3-[3-(2,3-dihydro-1H-indol-1-ylcarbonyl)benzyl]-2-imino-5,5-diphenylimidazolidin-4-one], the IC50 came to 52.1 nM.

On to `N=C1NC(c2ccccc2)(c2ccccc2)C(=O)N1Cc1cccc(C(=O)N2CCc3ccncc3C2)c1` [Compound 313, 3-[3-(3,4-dihydro-2,7-naphthyridin-2(1H)-ylcarbonyl)benzyl]-2-imino-5,5-diphenylimidazolidin-4-one], for which the IC50 was determined as 52.1 nM. For the compound `CC(C)CCC1(c2ccccc2)NC(=N)N(Cc2cccc(C(=O)N3CCC(n4c(=O)[nH]c5ccccc54)CC3)c2)C1=O` (stereo not shown) [Compound 314, 1-{1-[(3-{[2-imino-4-(3-methylbutyl)-5-oxo-4-phenylimidazolidin-1-yl]methyl}phenyl)carbonyl]piperidin-4-yl}-1,3-dihydro-2H-benzimidazol-2-one], the IC50 is 52.1 nM. Regarding `CC(C)CC1(c2ccccc2)NC(=N)N(Cc2cccc(C(=O)N3CCN(c4ccccc4Cl)CC3)c2)C1=O` (stereo not shown) [Compound 315, 3-(3-{[4-(2-chlorophenyl)piperazin-1-yl]carbonyl}benzyl)-2-imino-5-(2-methylpropyl)-5-phenylimidazolidin-4-one], the IC50 was found to be 52.3 nM. Turning to `N=C1NC(c2ccc(F)cc2)(c2ccc(F)cc2)C(=O)N1Cc1cccc(C(=O)N2CCC(n3c(=O)[nH]c4nc(F)ccc43)CC2)c1` [Compound 316, 1-{1-[(3-{[4,4-bis(4-fluorophenyl)-2-imino-5-oxoimidazolidin-1-yl]methyl}phenyl)carbonyl]piperidin-4-yl}-5-fluoro-1,3-dihydro-2H-imidazo[4,5-b]pyridin-2-one], the IC50 worked out at 52.9 nM. As to `N=C1NC(c2ccc(F)cc2)(c2ccc(F)cc2)C(=O)N1Cc1cccc(C(=O)N2Cc3ccc(C(F)(F)F)cc3C2)c1` [Compound 317, 5,5-bis(4-fluorophenyl)-2-imino-3-(3-{[5-(trifluoromethyl)-1,3-dihydro-2H-isoindol-2-yl]carbonyl}benzyl)-imidazolidin-4-one], the IC50 came to 54.9 nM. In the case of `CC(C)CC1(c2ccccc2)NC(=N)N(Cc2cccc(C(=O)N3CCc4ccccc4C3)c2)C1=O` (stereo not shown) [Compound 318, 3-[3-(3,4-dihydroisoquinolin-2(1H)-ylcarbonyl)benzyl]-2-imino-5-(2-methyl-propyl)-5-phenylimidazolidin-4-one], the IC50 came to 56.2 nM. Regarding `N=C1NC(c2ccc(F)cc2)(c2ccc(F)cc2)C(=O)N1Cc1cccc(C(=O)N2CCC(n3c(=O)oc4ccccc43)CC2)c1` [Compound 319, 3-{1-[(3-{[4,4-bis(4-fluorophenyl)-2-imino-5-oxoimidazolidin-1-yl]methyl}phenyl)carbonyl]piperidin-4-yl}-1,3-benzoxazol-2(3H)-one], the IC50 came out at 56.2 nM. The result for `CCCC1(c2ccccc2)NC(=N)N(Cc2cccc(C(=O)N3CCN(c4ncccn4)CC3)c2)C1=O` (stereo not shown) [Compound 320, 2-imino-5-phenyl-5-propyl-3-{3-[(4-pyrimidin-2-ylpiperazin-1-yl)carbonyl]benzyl} imidazolidin-4-one] reads 56.7 nM; that for `CC(C)CC1(c2ccccc2)NC(=N)N(Cc2cccc(C(=O)N3CCN(c4ccccn4)CC3)c2)C1=O` (stereo not shown) [Compound 321, 2-imino-5-(2-methylpropyl)-5-phenyl-3-{3-[(4-pyridin-2-ylpiperazin-1-yl)carbonyl]benzyl} imidazolidin-4-one], 56.8 nM.

Consider `CC1c2cc(Cl)c(Cl)cc2CN1C(=O)c1cccc(CN2C(=N)NC(c3ccccc3)(c3ccccc3)C2=O)c1` (stereo not shown) [Compound 322, 3-{3-[(5,6-dichloro-1-methyl-1,3-dihydro-2H-isoindol-2-yl)carbonyl]benzyl}-2-imino-5,5-diphenylimidazolidin-4-one], for which the IC50 was determined as 56.9 nM. In the case of `CC(=O)N1CCN(C(=O)c2cc(F)cc(CN3C(=N)NC(c4ccccc4)(c4ccccc4)C3=O)c2)CC1` [Compound 323, 3-{3-[(4-acetylpiperazin-1-yl)carbonyl]-5-fluorobenzyl}-2-imino-5,5-diphenylimidazolidin-4-one], the IC50 is 57 nM. Consider `N=C1NC(c2ccccc2)(c2ccccc2)C(=O)N1Cc1cccc(C(=O)N2CCN(c3ccccc3)CC2)c1` [Compound 324, 2-imino-5,5-diphenyl-3-{3-[(4-phenylpiperazin-1-yl)carbonyl]benzyl} imidazolidin-4-one], for which the IC50 was 57.7 nM. The figure for `C[C@@H](c1cccc(C(=O)N2Cc3ccccc3C2)c1)N1C(=N)NC(c2ccc(F)cc2)(c2ccc(F)cc2)C1=O` [Compound 325, 3-{(1S)-1-[3-(1,3-dihydro-2H-isoindol-2-ylcarbonyl)phenyl]ethyl}-5,5-bis(4-fluorophenyl)-2-iminoimidazolidin-4-one] is 58.5 nM; for `CC(C)NC(=O)N1CCN(C(=O)c2cccc(CN3C(=N)NC(c4ccccc4)(c4ccccc4)C3=O)c2)CC1` [Compound 326, 4-({3-[(2-imino-5-oxo-4,4-diphenylimidazolidin-1-yl)methyl]phenyl}carbonyl)-N-(1-methylethyl) piperazine-1-carboxamide] it is 59.4 nM; for `CN(C)C(=O)c1nc2n(c1Cl)CCN(C(=O)c1cccc(CN3C(=N)NC(c4ccccc4)(c4ccccc4)C3=O)c1)C2` [Compound 327, 3-chloro-7-({3-[(2-imino-5-oxo-4,4-diphenylimidazolidin-1-yl)methyl]phenyl}carbonyl)-N,N-dimethyl-5,6,7,8-tetrahydroimidazo[1,2-a]pyrazine-2-carboxamide] it is 64.2 nM.
